The values below come from ChEMBL document CHEMBL1132254, “Pharmacophore development for corticotropin-releasing hormone: new insights into inhibitor activity” (J Med Chem, 1999).

As usually defined, the Ki is a dissociation constant, usually derived from enzyme kinetics or from competition with a known ligand. Low readings indicate tighter binding, high ones weaker binding.

The target of the experiment is T1, Corticotropin-releasing factor receptor 1 (Homo sapiens, UniProt P34998).
T1 sequence (P34998 whole entry): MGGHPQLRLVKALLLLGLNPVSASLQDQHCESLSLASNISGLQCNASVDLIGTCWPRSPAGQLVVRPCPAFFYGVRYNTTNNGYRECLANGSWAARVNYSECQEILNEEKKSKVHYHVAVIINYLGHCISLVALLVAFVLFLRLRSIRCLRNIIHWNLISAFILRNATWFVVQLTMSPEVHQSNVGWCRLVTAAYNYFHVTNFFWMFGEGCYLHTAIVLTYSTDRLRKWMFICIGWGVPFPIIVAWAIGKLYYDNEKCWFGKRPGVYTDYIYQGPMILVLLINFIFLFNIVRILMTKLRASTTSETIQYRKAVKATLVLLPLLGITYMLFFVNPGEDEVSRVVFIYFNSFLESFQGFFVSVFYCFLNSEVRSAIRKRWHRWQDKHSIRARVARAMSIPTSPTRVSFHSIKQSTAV
Nature of the experiment: Inhibition of [125I]CRH binding to human Corticotropin releasing factor receptor 1.

`CCCN(CC1CC1)c1nc(C)nc(Nc2c(OC)cc(OC)cc2OC)n1` gave an inhibitory constant (Ki) of 8 µM.
With `CCCN(CC1CC1)c1cc(Nc2c(Cl)cc(Cl)cc2Cl)nc(C)n1`, the Ki worked out at 0.253 µM.
